Our source for the DC50 values is patent US20220281876A1, “DEGRADATION OF BRUTON'S TYROSINE KINASE (BTK) BY CONJUGATION OF BTK INHIBITORS WITH E3 LIGASE LIGAND AND METHODS OF USE” (BEIGENE, LTD., priority 2019, published 2022).

The structures appear in SMILES notation. Bounds are passed on as bounds.

A word on the DC50: it is the midpoint of the concentration-degradation curve.

The target of this experiment is T1, BTK (Homo sapiens, UniProt Q06187).
T1 construct: endogenous in cells; host or cells: Ramos cells
T1 sequence (Q06187 whole entry): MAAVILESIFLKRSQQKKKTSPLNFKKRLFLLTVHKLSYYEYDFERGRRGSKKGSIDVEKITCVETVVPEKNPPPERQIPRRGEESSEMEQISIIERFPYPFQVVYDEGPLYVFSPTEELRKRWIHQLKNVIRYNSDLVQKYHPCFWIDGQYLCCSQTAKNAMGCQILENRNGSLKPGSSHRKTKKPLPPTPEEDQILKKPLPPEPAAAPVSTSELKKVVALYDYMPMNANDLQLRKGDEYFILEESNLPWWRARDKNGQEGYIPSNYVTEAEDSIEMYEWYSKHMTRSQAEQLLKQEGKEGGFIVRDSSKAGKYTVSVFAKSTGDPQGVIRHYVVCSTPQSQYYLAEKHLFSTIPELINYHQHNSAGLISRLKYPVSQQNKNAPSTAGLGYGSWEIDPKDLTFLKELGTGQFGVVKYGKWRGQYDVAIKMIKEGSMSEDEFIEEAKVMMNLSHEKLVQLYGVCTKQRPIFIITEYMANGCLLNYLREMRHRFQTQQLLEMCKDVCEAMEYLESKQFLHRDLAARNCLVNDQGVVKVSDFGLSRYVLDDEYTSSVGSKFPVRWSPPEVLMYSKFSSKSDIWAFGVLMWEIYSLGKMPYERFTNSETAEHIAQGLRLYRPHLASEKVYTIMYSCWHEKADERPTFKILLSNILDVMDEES
As to the kind of experiment: BTK cell degradation in Ramos cells (total BTK ELISA). The following applies: 16 h incubation, FastScan total BTK ELISA. The experiment is classed as cell-based. On the procedure: Ramos cells are treated with compounds diluted in 0.1% DMSO, dilution is done according to the following protocol: (1) make 1000x stock solution in DMSO from 10 mM by 5-fold dilution, total 7 doses were included; (2) make 10x solution in cell culture medium by transferring 1 ul 1000x stock solution into 99 ul medium; (3) 11 ul of 10× solution is added to cells and incubate for 16 h.
Cells in 96 well plate are harvested by centrifugation (1200 rpm), and wash once with ice-cold PBS. Then, 100 ul 1×cell extraction buffer is added in each well. The cells are placed on a shaker for 20 min at 4° C.; 5 ul lysate is transferred to 45 ul of 1×cell extraction buffer in ELISA plate, and 50 ul of the antibody cocktail is added in each well; seal the plate and incubate 1 hour at room temperature on a plate shaker; medium is discarded from the plate, tap the plated on a paper towel, wash 3×200 ul ELISA wash buffer; add 100 ul of TMB to each well and incubate the plate in the dark for 15 min at room temperature on a shaker; add 100 ul of STOP solution to each well; read absorbance at 450 nm. The BTK ELISA assay was performed using FastScan total BTK ELISA kit (Cell Signaling Cat #36609).
A general note: An ELISA detects its analyte on a solid surface through an enzyme-linked reagent.
For the compound `NC(=O)c1c(-c2ccc(Oc3ccccc3)cc2)nn2c1NCC[C@H]2C1CCN(C(=O)c2cn(CCOCCOCCNc3ccc4c(c3)C(=O)N(C3CCC(=O)NC3=O)C4=O)nn2)CC1` (stereo partly drawn) [Example 7, (7S)-7-(1-(1-(2-(2-(2-((2-(2,6-dioxopiperidin-3-yl)-1,3-dioxoisoindolin-5-yl)amino)ethoxy)ethoxy)ethyl)-1H-1,2,3-triazole-4-carbonyl)piperidin-4-yl)-2-(4-phenoxyphenyl)-4,5,6,7-tetrahydropyrazolo[1,5-a]pyrimidine-3-carboxamide], the DC50 is > 10000 nM.
For `NC(=O)c1c(-c2ccc(Oc3ccccc3)cc2)nn2c1NCC[C@H]2C1CCN(C(=O)c2cn(CCOCCOCCOCCNc3cccc4c3C(=O)N(C3CCC(=O)NC3=O)C4=O)nn2)CC1` (stereo partly drawn) [Example 8, (7S)-7-(1-(1-(2-(2-(2-(2-((2-(2,6-dioxopiperidin-3-yl)-1,3-dioxoisoindolin-4-yl)amino)ethoxy)ethoxy)ethoxy)ethyl)-1H-1,2,3-triazole-4-carbonyl)piperidin-4-yl)-2-(4-phenoxyphenyl)-4,5,6,7-tetrahydropyrazolo[1,5-a]pyrimidine-3-carboxamide] the value was 128 nM; for `NC(=O)c1c(-c2ccc(Oc3ccccc3)cc2)nn2c1NCC[C@H]2C1CCN(C(=O)c2cn(CCOCCOCCOCC#Cc3cccc4c3CN(C3CCC(=O)NC3=O)C4=O)nn2)CC1` (stereo partly drawn) [Example 9, (7S)-7-(1-(1-(2-(2-(2-((3-(2-(2,6-dioxopiperidin-3-yl)-1-oxoisoindolin-4-yl)prop-2-yn-1-yl)oxy)ethoxy)ethoxy)ethyl)-1H-1,2,3-triazole-4-carbonyl)piperidin-4-yl)-2-(4-phenoxyphenyl)-4,5,6,7-tetrahydropyrazolo[1,5-a]pyrimidine-3-carboxamide], > 10000 nM.
As for `NC(=O)c1c(-c2ccc(Oc3ccccc3)cc2)nn2c1NCC[C@H]2C1CCN(C(=O)c2cn(CCOCCOCCOCCOCCCc3cccc4c3CN(C3CCC(=O)NC3=O)C4=O)nn2)CC1` (stereo partly drawn) [Example 10, (7S)-7-(1-(1-(15-(2-(2,6-dioxopiperidin-3-yl)-1-oxoisoindolin-4-yl)-3,6,9, 12-tetraoxapentadecyl)-1H-1,2,3-triazole-4-carbonyl)piperidin-4-yl)-2-(4-phenoxyphenyl)-4,5,6,7-tetrahydropyrazolo[1,5-a]pyrimidine-3-carboxamide], the DC50 is > 10000 nM.
To `NC(=O)c1c(-c2ccc(Oc3ccccc3)cc2)nn2c1NCC[C@H]2C1CCN(C(=O)c2cn(CCOCCOCCOCCOCC#Cc3cccc4c3CN(C3CCC(=O)NC3=O)C4=O)nn2)CC1` (stereo partly drawn) [Example 11, (7S)-7-(1-(1-(15-(2-(2,6-dioxopiperidin-3-yl)-1-oxoisoindolin-4-yl)-3,6,9, 12-tetraoxapentadec-14-yn-1-yl)-1H-1,2,3-triazole-4-carbonyl)piperidin-4-yl)-2-(4-phenoxyphenyl)-4,5,6,7-tetrahydropyrazolo[1,5-a]pyrimidine-3-carboxamide] belongs 176 nM.
`NC(=O)c1c(-c2ccc(Oc3ccccc3)cc2)nn2c1NCC[C@H]2C1CCN(C(=O)c2cn(CCOCCOCCOCCOCCNc3ccc4c(c3)C(=O)N(C3CCC(=O)NC3=O)C4=O)nn2)CC1` (stereo partly drawn) [Example 12, (7S)-7-(1-(1-(14-((2-(2,6-dioxopiperidin-3-yl)-1,3-dioxoisoindolin-5-yl)amino)-3,6,9, 12-tetraoxatetradecyl)-1H-1,2,3-triazole-4-carbonyl)piperidin-4-yl)-2-(4-phenoxyphenyl)-4,5,6,7-tetrahydropyrazolo[1,5-a]pyrimidine-3-carboxamide]: the DC50 is > 10000 nM.
To `NC(=O)c1c(-c2ccc(Oc3ccccc3)cc2)nn2c1NCC[C@H]2C1CCN(C(=O)c2cn(CCOCCOCCOCCOCCOCCNc3ccc4c(c3)C(=O)N(C3CCC(=O)NC3=O)C4=O)nn2)CC1` (stereo partly drawn) [Example 14, (7S)-7-(1-(1-(17-((2-(2,6-dioxopiperidin-3-yl)-1,3-dioxoisoindolin-5-yl)amino)-3,6,9, 12, 15-pentaoxaheptadecyl)-1H-1,2,3-triazole-4-carbonyl)piperidin-4-yl)-2-(4-phenoxyphenyl)-4,5,6,7-tetrahydropyrazolo[1,5-a]pyrimidine-3-carboxamide] belongs 78 nM; to `NC(=O)c1c(-c2ccc(Oc3ccccc3)cc2)nn2c1NCC[C@H]2C1CCN(C(=O)c2cn(CCOCCOCCOCCOCCOCCNc3cccc4c3C(=O)N(C3CCC(=O)NC3=O)C4=O)nn2)CC1` (stereo partly drawn) [Example 15, (7S)-7-(1-(1-(17-((2-(2,6-dioxopiperidin-3-yl)-1,3-dioxoisoindolin-4-yl)amino)-3,6,9, 12, 15-pentaoxaheptadecyl)-1H-1,2,3-triazole-4-carbonyl)piperidin-4-yl)-2-(4-phenoxyphenyl)-4,5,6,7-tetrahydropyrazolo[1,5-a]pyrimidine-3-carboxamide], 78 nM.
To `NC(=O)c1c(-c2ccc(Oc3ccccc3)cc2)nn2c1NCC[C@H]2C1CCN(C(=O)c2cn(CCOCCOCCOCCOCCOCCOCCNc3cccc4c3C(=O)N(C3CCC(=O)NC3=O)C4=O)nn2)CC1` (stereo partly drawn) [Example 16, (7S)-7-(1-(1-(20-((2-(2,6-dioxopiperidin-3-yl)-1,3-dioxoisoindolin-4-yl)amino)-3,6,9, 12, 15, 18-hexaoxaicosyl)-1H-1,2,3-triazole-4-carbonyl)piperidin-4-yl)-2-(4-phenoxyphenyl)-4,5,6,7-tetrahydropyrazolo[1,5-a]pyrimidine-3-carboxamide] belongs 107 nM; to `NC(=O)c1c(-c2ccc(Oc3ccccc3)cc2)nn2c1NCC[C@H]2C1CCN(C(=O)c2cn(CCOCCOCCOCCOCCOCCOCCOCCNc3cccc4c3C(=O)N(C3CCC(=O)NC3=O)C4=O)nn2)CC1` (stereo partly drawn) [Example 17, (7S)-7-(1-(1-(23-((2-(2,6-dioxopiperidin-3-yl)-1,3-dioxoisoindolin-4-yl)amino)-3,6,9, 12, 15, 18, 21-heptaoxatricosyl)-1H-1,2,3-triazole-4-carbonyl)piperidin-4-yl)-2-(4-phenoxyphenyl)-4,5,6,7-tetrahydropyrazolo[1,5-a]pyrimidine-3-carboxamide], > 10000 nM; to `NC(=O)c1c(-c2ccc(Oc3ccccc3)cc2)nn2c1NCC[C@H]2C1CCN(C(=O)CCCc2cn(CCOCCNc3cccc4c3C(=O)N(C3CCC(=O)NC3=O)C4=O)nn2)CC1` (stereo partly drawn) [Example 18, (7S)-7-(1-(4-(1-(2-(2-((2-(2,6-dioxopiperidin-3-yl)-1,3-dioxoisoindolin-4-yl)amino)ethoxy)ethyl)-1H-1,2,3-triazol-4-yl)butanoyl)piperidin-4-yl)-2-(4-phenoxyphenyl)-4,5,6,7-tetrahydropyrazolo[1,5-a]pyrimidine-3-carboxamide], 236 nM.
In turn, `NC(=O)c1c(-c2ccc(Oc3ccccc3)cc2)nn2c1NCC[C@H]2C1CCN(C(=O)CCCc2cn(CCCCNC(=O)COc3cccc4c3C(=O)N(C3CCC(=O)NC3=O)C4=O)nn2)CC1` (stereo partly drawn) [Example 19, (7S)-7-(1-(4-(1-(4-(2-((2-(2,6-dioxopiperidin-3-yl)-1,3-dioxoisoindolin-4-yl)oxy)acetamido)butyl)-1H-1,2,3-triazol-4-yl)butanoyl)piperidin-4-yl)-2-(4-phenoxyphenyl)-4,5,6,7-tetrahydropyrazolo[1,5-a]pyrimidine-3-carboxamide] had a DC50 of 6410 nM.
For `NC(=O)c1c(-c2ccc(Oc3ccccc3)cc2)nn2c1NCC[C@H]2C1CCN(C(=O)CCCc2cn(CCOCCOCCNc3cccc4c3C(=O)N(C3CCC(=O)NC3=O)C4=O)nn2)CC1` (stereo partly drawn) [Example 20, (7S)-7-(1-(4-(1-(2-(2-(2-((2-(2,6-dioxopiperidin-3-yl)-1,3-dioxoisoindolin-4-yl)amino)ethoxy)ethoxy)ethyl)-1H-1,2,3-triazol-4-yl)butanoyl)piperidin-4-yl)-2-(4-phenoxyphenyl)-4,5,6,7-tetrahydropyrazolo[1,5-a]pyrimidine-3-carboxamide] the value was > 10000 nM; for `NC(=O)c1c(-c2ccc(Oc3ccccc3)cc2)nn2c1NCC[C@H]2C1CCN(C(=O)CCCc2cn(CCOCCOCCOCCNc3cccc4c3C(=O)N(C3CCC(=O)NC3=O)C4=O)nn2)CC1` (stereo partly drawn) [Example 21, (7S)-7-(1-(4-(1-(2-(2-(2-(2-((2-(2,6-dioxopiperidin-3-yl)-1,3-dioxoisoindolin-4-yl)amino)ethoxy)ethoxy)ethoxy)ethyl)-1H-1,2,3-triazol-4-yl)butanoyl)piperidin-4-yl)-2-(4-phenoxyphenyl)-4,5,6,7-tetrahydropyrazolo[1,5-a]pyrimidine-3-carboxamide], 388 nM.
To `NC(=O)c1c(-c2ccc(Oc3ccccc3)cc2)nn2c1NCC[C@H]2C1CCN(CCOCCOCC(=O)Nc2ccc3c(c2)C(=O)N(C2CCC(=O)NC2=O)C3=O)CC1` (stereo partly drawn) [Example 24, (7S)-7-(1-(2-(2-(2-((2-(2,6-dioxopiperidin-3-yl)-1,3-dioxoisoindolin-5-yl)amino)-2-oxoethoxy)ethoxy)ethyl)piperidin-4-yl)-2-(4-phenoxyphenyl)-4,5,6,7-tetrahydropyrazolo[1,5-a]pyrimidine-3-carboxamide] belongs 34 nM.
For `NC(=O)c1c(-c2ccc(Oc3ccccc3)cc2)nn2c1NCC[C@H]2C1CCN(C(=O)COCCCCCCCCNC(=O)COc2cccc3c2CN(C2CCC(=O)NC2=O)C3=O)CC1` (stereo partly drawn) [Example 25, (7S)-7-(1-(2-((8-(2-((2-(2,6-dioxopiperidin-3-yl)-1-oxoisoindolin-4-yl)oxy)acetamido)octyl)oxy)acetyl)piperidin-4-yl)-2-(4-phenoxyphenyl)-4,5,6,7-tetrahydropyrazolo[1,5-a] pyrimidine-3-carboxamide] the value was > 10000 nM.
